In patent publication US20150197492A1, “NOVEL INDENO[1,2-c]QUINOLIN-11-ONE DERIVATIVES, PREPARATION METHOD AND APPLICATION THEREOF” (National Defense Medical Center, priority 2014, published 2015):

How the values were obtained:
Format in all cases: cell-based
HCT-116 = assay: cells; conditions: HCT-116 (Colon Cancer), 10 μM, 48 hours
SF-539 = assay: cells; conditions: SF-539 (CNS Cancer), 10 μM, 48 hours
HL-60 (TB) = assay: cells; conditions: HL-60 (TB) (Leukemia), 10 μM, 48 hours
RXF 393 = assay: cells; conditions: RXF 393 (Renal Cancer), 10 μM, 48 hours
SK-MEL-5 = assay: cells; conditions: SK-MEL-5 (Melanoma), 10 μM, 48 hours
SR = assay: cells; conditions: SR (Leukemia), 10 μM, 48 hours
IGROV1 = assay: cells; conditions: IGROV1 (Ovarian Cancer), 10 μM, 48 hours
SN12C = assay: cells; conditions: SN12C (Renal Cancer), 10 μM, 48 hours
T-47D = assay: cells; conditions: T-47D (Breast Cancer), 10 μM, 48 hours
K-562 = assay: cells; conditions: K-562 (Leukemia), 10 μM, 48 hours
HOP-62 = assay: cells; conditions: HOP-62 (Non-Small Cell Lung Cancer), 10 μM, 48 hours
SF-295 = assay: cells; conditions: SF-295 (CNS Cancer), 10 μM, 48 hours
[1] = test system: 55 to 60 cancer cell lines; conditions: 10 μM, 48 hours, all tested cell lines
CCRF-CEM = assay: cells; conditions: CCRF-CEM (Leukemia), 10 μM, 48 hours
HS 578T = assay: cells; conditions: HS 578T (Breast Cancer), 10 μM, 48 hours
COLO 205 = assay: cells; conditions: COLO 205 (Colon Cancer), 10 μM, 48 hours
NCI/ADR-RES = assay: cells; conditions: NCI/ADR-RES (Ovarian Cancer), 10 μM, 48 hours
HT29 = assay: cells; conditions: HT29 (Colon Cancer), 10 μM, 48 hours
A498 = assay: cells; conditions: A498 (Renal Cancer), 10 μM, 48 hours
NCI-H460 = assay: cells; conditions: NCI-H460 (Non-Small Cell Lung Cancer), 10 μM, 48 hours
KM12 = assay: cells; conditions: KM12 (Colon Cancer), 10 μM, 48 hours
SW-620 = assay: cells; conditions: SW-620 (Colon Cancer), 10 μM, 48 hours
NCI-H226 = assay: cells; conditions: NCI-H226 (Non-Small Cell Lung Cancer), 10 μM, 48 hours
human PC-3 cells = assay: Sulforhodamine B (SRB) assay, cytotoxicity against PC-3 cells; conditions: SRB assay, PC-3 cells
Protocol: Add 5% Fetal Bovine Serum (FBS) to 96-well plate and fix the cells with 10% TCA after 24 hours of incubation and add the compound (T0). Add DMSO and culture for another 48 hours and the cells are fixed in 0.4% (W/V), 10% TCA and SRB, and […]. Excess SRB is washed off by 1% acetic acid and cells stained with SRB are dissolved in 10 mmol/L Trizma base. The absorbance is measured at 515 nm. The treatment time is 0 (T0), control growth (C) and the increase of the compound (Tx) in the cells are shown below and are used to calculate the increase of the concentration of the compound in percentage. Growth inhibition (GI %) is calculated using the following formula 100−[(TX−T0)/(C−T0)]×100. The 50% growth inhibition concentration (IC50) is used to confirm the concentration of compound and thus results in 50% reduction of the treated cells which control the amount of total protein.
This part of experimental results are SRB assays measuring cytotoxicity of the 26 synthesized compounds against human PC-3 cells and are summarized in Table 1 and 2.

BT-549 = assay: cells; conditions: BT-549 (Breast Cancer), 10 μM, 48 hours
DU-145 = assay: cells; conditions: DU-145 (Prostate Cancer), 10 μM, 48 hours
786-0 = assay: cells; conditions: 786-0 (Renal Cancer), 10 μM, 48 hours
NCI-H23 = assay: cells; conditions: NCI-H23 (Non-Small Cell Lung Cancer), 10 μM, 48 hours
SK-MEL-28 = assay: cells; conditions: SK-MEL-28 (Melanoma), 10 μM, 48 hours

CC1CCN(c2nc3ccccc3c3c2-c2ccc(Cl)cc2C3=O)CC1 [SJ-6, 9-Chloro-6-(4-methylpiperidin-1-yl)-11H-indeno[1,2-c]quinolin-11-one]
growth percentage (HCT-116): 102.51%
growth percentage (SF-539): 90.22%
growth percentage (HL-60 (TB)): 98.84%
growth percentage (RXF 393): 97.51%
growth percentage (SK-MEL-5): 98.52%
growth percentage (SR): 98.51%
growth percentage (IGROV1): 94.36%
growth percentage (SN12C): 99.08%
growth percentage (T-47D): 67.68%
growth percentage (K-562): 103.57%
growth percentage (HOP-62): 64.18%
growth percentage (SF-295): 96.18%
Mean (mean growth percentage of the tested cancer cell lines) [1]: 96.2%
growth percentage (CCRF-CEM): 104.33%
growth percentage (HS 578T): 98.38%
growth percentage (COLO 205): 104.79%
growth percentage (NCI/ADR-RES): 90.28%
growth percentage (HT29): 104.84%
growth percentage (A498): 87.55%
growth percentage (NCI-H460): 101.21%
growth percentage (KM12): 94.80%
growth percentage (SW-620): 88.89%
growth percentage (NCI-H226): 94.59%
Toxicity (%) (human PC-3 cells): 0%
GI % (10 μM) (human PC-3 cells): 89.81%
growth percentage (BT-549): 95.52%
growth percentage (DU-145): 103.47%
growth percentage (786-0): 102.73%
growth percentage (NCI-H23): 90.42%
growth percentage (SK-MEL-28): 105.21%

O=C1c2cc(Cl)ccc2-c2c(N3CCN(C4CCCC4)CC3)nc3ccccc3c21 [SJ-14, 9-Chloro-6-(4-cyclopentylpiperazin-1-yl)-11H-indeno[1,2-c]quinolin-11-one]
growth percentage (HCT-116): 91.34%
growth percentage (SF-539): 101.34%
growth percentage (HL-60 (TB)): 103.04%
growth percentage (RXF 393): 95.60%
growth percentage (SK-MEL-5): 97.48%
growth percentage (SR): 97.09%
growth percentage (IGROV1): 85.84%
growth percentage (SN12C): 99.08%
growth percentage (T-47D): 92.20%
growth percentage (K-562): 99.26%
growth percentage (HOP-62): 108.83%
growth percentage (SF-295): 96.87%
Mean (mean growth percentage of the tested cancer cell lines) [1]: 96.53%
growth percentage (CCRF-CEM): 95.17%
growth percentage (HS 578T): 99.40%
growth percentage (COLO 205): 104.54%
growth percentage (NCI/ADR-RES): 100.39%
growth percentage (HT29): 93.22%
growth percentage (A498): 88.64%
growth percentage (NCI-H460): 101.46%
growth percentage (KM12): 99.33%
growth percentage (SW-620): 93.06%
growth percentage (NCI-H226): 92.80%
Toxicity (%) (human PC-3 cells): 0%
GI % (10 μM) (human PC-3 cells): 96.26%
growth percentage (BT-549): 102.74%
growth percentage (DU-145): 110.73%
growth percentage (786-0): 97.90%
growth percentage (NCI-H23): 92.80%
growth percentage (SK-MEL-28): 107.58%

O=C1c2cc(Cl)ccc2-c2c(N3CCN(c4ccccc4)CC3)nc3ccccc3c21 [SJ-16, 9-Chloro-6-(4-phenylpiperazin-1-yl)-11H-indeno[1,2-c]quinolin-11-one]
growth percentage (HCT-116): 78.18%
growth percentage (SF-539): 83.17%
growth percentage (HL-60 (TB)): 105.45%
growth percentage (RXF 393): 72.95%
growth percentage (SK-MEL-5): 99.23%
growth percentage (SR): 95.93%
growth percentage (IGROV1): 65.13%
growth percentage (SN12C): 87.90%
growth percentage (T-47D): 75.93%
growth percentage (K-562): 95.17%
growth percentage (SF-295): 60.91%
Mean (mean growth percentage of the tested cancer cell lines) [1]: 87.29%
growth percentage (CCRF-CEM): 93.52%
growth percentage (COLO 205): 102.19%
growth percentage (NCI/ADR-RES): 97.88%
growth percentage (HT29): 82.40%
growth percentage (A498): 97.48%
growth percentage (NCI-H460): 97.04%
growth percentage (KM12): 98.34%
growth percentage (SW-620): 93.14%
growth percentage (NCI-H226): 79.43%
Toxicity (%) (human PC-3 cells): 0%
GI % (10 μM) (human PC-3 cells): 65.91%
growth percentage (BT-549): 89.83%
growth percentage (DU-145): 102.96%
growth percentage (786-0): 81.41%
growth percentage (NCI-H23): 83.34%
growth percentage (SK-MEL-28): 104.82%
